The values below come from PMC4642672, “The GH5 1,4-β-mannanase from Bifidobacterium animalis subsp. lactis Bl-04 possesses a low-affinity mannan-binding module and highlights the diversity of mannanolytic enzymes” (BMC Biochemistry, 2015).

One assay concerns the target T1, BlMan5_8 (Bifidobacterium animalis, UniProt B8DWU0).
T1 construct: gene BLA_0648; mature enzyme without signal peptide (residues 1-29 removed), GH5_8 + C-terminal CBM10; N-terminal His6 tag cleaved by thrombin; E. coli BL21(DE3)
The experiment in a line: surface plasmon resonance, steady state, enzyme immobilised by amine coupling. To be noted: 10 mM MES, 150 mM NaCl, 0.005% P20, pH 6.0, 25 °C, one-site fit. In kind it is binding. An excerpt: surface plasmon resonance, steady state, enzyme immobilised by amine coupling on BlMan5_8

The next assay has as its target T2, BlMan5_8-ΔCBM10 (Bifidobacterium animalis, UniProt B8DWU0).
T2 construct: gene BLA_0648; catalytic GH5_8 module, C-terminal CBM10 deleted by stop codon at Ser338 in linker; signal peptide (1-29) removed; N-terminal His6 tag cleaved by thrombin; E. coli BL21(DE3)
Described as above. In kind it is binding. As to conditions: 10 mM MES, 150 mM NaCl, 0.005% P20, pH 6.0, 25 °C; one-site fit; catalytic module. The source says:
surface plasmon resonance, steady state, enzyme immobilised by amine coupling on BlMan5_8-ΔCBM10

Where [1] appears, read: catalytic module and CBM10 both bind.

T1 sequence (B8DWU0 entry or part of it): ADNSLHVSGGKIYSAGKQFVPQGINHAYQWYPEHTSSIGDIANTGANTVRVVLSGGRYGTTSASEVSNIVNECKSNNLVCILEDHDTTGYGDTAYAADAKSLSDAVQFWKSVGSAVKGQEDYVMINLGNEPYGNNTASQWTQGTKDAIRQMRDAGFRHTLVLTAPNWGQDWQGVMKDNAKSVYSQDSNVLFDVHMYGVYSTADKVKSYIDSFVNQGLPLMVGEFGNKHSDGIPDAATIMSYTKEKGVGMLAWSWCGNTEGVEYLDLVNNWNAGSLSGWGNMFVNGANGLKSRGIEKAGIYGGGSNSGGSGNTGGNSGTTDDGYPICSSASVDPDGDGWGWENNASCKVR
T2 sequence (B8DWU0 entry or part of it, stated change not applied): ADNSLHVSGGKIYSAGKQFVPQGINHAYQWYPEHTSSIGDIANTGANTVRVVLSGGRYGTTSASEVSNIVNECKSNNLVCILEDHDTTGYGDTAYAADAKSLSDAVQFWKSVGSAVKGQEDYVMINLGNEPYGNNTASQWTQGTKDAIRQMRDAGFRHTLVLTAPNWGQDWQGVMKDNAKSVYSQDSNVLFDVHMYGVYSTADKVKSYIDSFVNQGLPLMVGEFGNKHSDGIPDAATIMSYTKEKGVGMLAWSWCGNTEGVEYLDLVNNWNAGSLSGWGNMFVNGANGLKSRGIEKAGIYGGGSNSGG

For orientation: Kd means the constant that tells how readily two partners part at equilibrium. `OC[C@H]1O[C@@H](O[C@H]2[C@H](O)[C@H](O)[C@H](O[C@H]3[C@H](O)[C@H](O)[C@H](O[C@H]4[C@H](O)[C@H](O)C(O)O[C@@H]4CO)O[C@@H]3CO)O[C@@H]2CO)[C@@H](O)[C@@H](O)[C@@H]1O` (some centres unmarked) [M4, mannotetraose] showed a Kd on BlMan5_8 (CBM10 site suggested) of 5100 ± 800 µM.
As for `OC[C@H]1O[C@@H](O[C@H]2[C@H](O)[C@H](O)[C@H](O[C@H]3[C@H](O)[C@H](O)[C@H](O[C@H]4[C@H](O)[C@H](O)[C@H](O[C@H]5[C@H](O)[C@H](O)C(O)O[C@@H]5CO)O[C@@H]4CO)O[C@@H]3CO)O[C@@H]2CO)[C@@H](O)[C@@H](O)[C@@H]1O` (some centres unmarked) [M5, mannopentaose], the Kd was 3700 ± 300 µM on BlMan5_8 (setting [1]) and 1500 ± 300 µM at BlMan5_8-ΔCBM10.
For the compound `OC[C@H]1O[C@@H](O[C@H]2[C@H](O)[C@H](O)[C@H](O[C@H]3[C@H](O)[C@H](O)[C@H](O[C@H]4[C@H](O)[C@H](O)[C@H](O[C@H]5[C@H](O)[C@H](O)[C@H](O[C@H]6[C@H](O)[C@H](O)C(O)O[C@@H]6CO)O[C@@H]5CO)O[C@@H]4CO)O[C@@H]3CO)O[C@@H]2CO)[C@@H](O)[C@@H](O)[C@@H]1O` (some centres unmarked) [M6, mannohexaose], the results for the Kd at BlMan5_8 (setting [1]) and on BlMan5_8-ΔCBM10 were 580 ± 50 µM and 240 ± 420 µM, respectively.
